Reference: patent US20260020566A1, “FUNGICIDAL COMPOSITIONS” (SYNGENTA CROP PROTECTION AG, priority 2022, published 2026)
Values joined by “and” are separate entries in the source; they are usually repeats but may differ in a detail not shown here. Equal values may be shown once.

Tests used:
Phakopsora pachyrhizi = Phakopsora pachyrhizi (Soybean rust) soybean leaf disk preventive fungicidal activity; type: in vivo; details: single compound, approx. 12 dpi; for inhibition at 3 g/ha / inhibition at 1 g/ha: Phakopsora pachyrhizi, foliar, read-out: Observed Activity (%)
Description: Phakopsora pachyrhizi (Soybean Rust): Soybean leaf disks are placed on agar in multiwell plates (24-well format) and sprayed with test solutions. After drying, the leaf disks are inoculated with a spore suspension of the fungus. After appropriate incubation the activity of a compound is assessed approx. 12 dpi (days after inoculation) as preventive fungicidal activity.

Septoria tritici = Septoria tritici (Leaf blotch) liquid culture growth inhibition, microtiter plate; type: cell-based; details: single compound, 72 hrs, 24 C
Description: (§1) Septoria tritici (Leaf Blotch): Conidia of the fungus from cryogenic storage were directly mixed into nutrient broth (PDB potato dextrose broth). A DMSO solution of the test compounds was placed into a microtiter plate (96-well format) and the nutrient broth containing the fungal spores was added to it. The test plates were incubated at 24 C and the inhibition of growth was determined photometrically after 72 hrs.

Botrytis cinerea = Botrytis cinerea (Gray mould) liquid culture growth inhibition, microtiter plate; type: cell-based; details: single compound, 72 hrs, 24 C, read-out: Observed Activity (%)
Description: as §1, with “Botrytis cinerea (Gray Mould):” for “Septoria tritici (Leaf Blotch):”

[1] = system: Mycosphaerella arachidis syn. Cercospora arachidicola; assay: Mycosphaerella arachidis syn. Cercospora arachidicola (Brown leaf spot of peanut) liquid culture growth inhibition; type: cell-based; details: single compound, approximately 5-6 days, 24 C, read-out: Observed Activity (%)
Description: as §1, with “Mycosphaerella arachidis syn. Cercospora arachidicola (Brown Leaf Spot of Peanut):” for “Septoria tritici (Leaf Blotch):”, “approximately 5-6 days at 620nm” for “72 hrs.”

[2] = Zymoseptoria tritici, read-out: Observed Activity (%)

Compound	Observed Activity (%) (Phakopsora pachyrhizi; 1 g a.i./ha)	Observed Activity (%) (Phakopsora pachyrhizi; 3 g a.i./ha)	inhibition at 10 ppm (Septoria tritici; [2])	inhibition at 20 ppm (Septoria tritici; [2])	inhibition at 20 ppm (Botrytis cinerea)	inhibition at 3 g/ha (Phakopsora pachyrhizi; 3 g a.i./ha)	inhibition at 1 g/ha (Phakopsora pachyrhizi; 1 g a.i./ha)	also measured
1-(2,6-difluoro-4-isopropyl-phenyl)pyrazole; methyl N-[(2,5-dimethylphenyl)methyl]carbamate [reference compound]	3%	65%						Observed Activity (%) (Septoria tritici; 0.0008 ppm): 20%; Observed Activity (%) (Septoria tritici; 0.00246 ppm): 70%
Fc1cccc(F)c1C1(Oc2ncc(-c3nnc(C(F)F)o3)cn2)CC1 [Compound A-1.2, 2-(difluoromethyl)-5-[2-[1-(2,6-difluorophenyl)cyclopropoxy]pyrimidin-5-yl]-1,3,4-oxadiazole]	0% and 9%	4% and 0%	0%	0%				Observed Activity (%) (Phakopsora pachyrhizi; 6 g a.i./ha): 5%
Fc1cccc(F)c1C1(Nc2ncc(-c3nnc(C(F)F)o3)cn2)CC1 [Compound A-1.3, 5-[5-(difluoromethyl)-1,3,4-oxadiazol-2-yl]-N-[1-(2,6-difluorophenyl)cyclopropyl]pyrimidin-2-amine]	5% and 1%		20%	20%	20%	47%		inhibition at 10 ppm (Botrytis cinerea): 20%; inhibition at 10 ppm ([1]; 10 ppm): 20%; inhibition at 20 ppm ([1]; 20 ppm): 20%
Fc1ccccc1C1(Nc2ncc(-c3nnc(C(F)F)o3)cn2)CC1 [Compound A-1.4, 5-[5-(difluoromethyl)-1,3,4-oxadiazol-2-yl]-N-[1-(2-fluorophenyl)cyclopropyl]pyrimidin-2-amine]	16%	45%	20%	20%	20%	43%	12%	inhibition at 10 ppm (Botrytis cinerea): 20%
CCOC(=O)c1cnn(Cc2ccc(O/C=C(\OCC)C(F)(F)F)cc2)c1 [ethyl 1-[[4-[(Z)-2-ethoxy-3,3,3-trifluoro-prop-1-enoxy]phenyl]methyl]pyrazole-4-carboxylate, reference compound]				20%	20%	56%	38%	inhibition at 6.66 ppm (Botrytis cinerea): 20%
CCOC(=O)c1cnn(Cc2ccc(OCC3(C(F)(F)F)OCCO3)cc2)c1 [ethyl 1-[[4-[[2-(trifluoromethyl)-1,3-dioxolan-2-yl]methoxy]phenyl]methyl]pyrazole-4-carboxylate]					0%		35%	inhibition at 6.66 ppm (Botrytis cinerea): 0%
COC(=O)NCc1cc(-c2ccn(-c3c(F)cc(C4CC4)cc3F)n2)ccc1C [methyl N-[[5-[1-(4-cyclopropyl-2,6-difluoro-phenyl)pyrazol-3-yl]-2-methyl-phenyl]methyl]carbamate, reference compound]						54%	12%	inhibition at 0.0074 ppm (Botrytis cinerea; 0.0074 ppm): 0%; inhibition at 0.022 ppm (Botrytis cinerea; 0.022 ppm): 50%; inhibition at 0.00246 ppm ([1]; 0.00246 ppm): 20%; inhibition at 0.0008 ppm (Septoria tritici; Zymoseptoria tritici, 0.0008 ppm, read-out: Observed Activity (%)): 20%
